{
  "source": "paper PMC7114135",
  "about": "“Interaction between the Antimalarial Drug Dispiro-Tetraoxanes and Human Serum Albumin: A Combined Study with Spectroscopic Methods and Computational Studies” (ACS Omega, 2020)",
  "molecular_target": "T1, human serum albumin (HSA) (Homo sapiens, UniProt P02768)",
  "T1 construct": "gene ALB; fatty-acid-free HSA (Sigma-Aldrich A3782)",
  "T1 sequence (P02768 25-609)": "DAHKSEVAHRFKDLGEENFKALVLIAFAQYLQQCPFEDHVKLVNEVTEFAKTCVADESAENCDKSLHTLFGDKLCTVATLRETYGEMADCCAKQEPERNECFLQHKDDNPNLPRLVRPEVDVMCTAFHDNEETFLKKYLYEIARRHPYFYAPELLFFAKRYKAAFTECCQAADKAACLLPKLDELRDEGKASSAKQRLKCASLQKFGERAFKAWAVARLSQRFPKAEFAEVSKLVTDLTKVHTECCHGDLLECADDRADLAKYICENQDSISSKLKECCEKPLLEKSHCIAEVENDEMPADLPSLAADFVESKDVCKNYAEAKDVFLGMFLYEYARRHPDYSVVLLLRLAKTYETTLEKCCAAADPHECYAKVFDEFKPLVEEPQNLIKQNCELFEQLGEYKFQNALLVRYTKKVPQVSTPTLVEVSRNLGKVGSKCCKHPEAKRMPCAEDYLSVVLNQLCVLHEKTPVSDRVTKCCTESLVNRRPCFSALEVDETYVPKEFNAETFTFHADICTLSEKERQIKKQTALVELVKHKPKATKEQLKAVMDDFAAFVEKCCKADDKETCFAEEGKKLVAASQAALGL",
  "experiment": "intrinsic fluorescence quenching (modified Stern-Volmer, binding constant Kb, […] K), supported by UV-vis, time-resolved fluorescence and CD",
  "conditions": "read-out: Kb (L mol^-1) (converted)",
  "data": [
    {"compound": "O=S(=O)(CCCCl)CN1CCC2(CC1)OOC1(CCCC1)OO2", "note": "[TO1]", "values": [
      {"measurement": "Kd", "value": 16, "unit": "µM"}
    ]},
    {"compound": "CCS(=O)(=O)CN1CCC2(CC1)OOC1(CCCCC1)OO2", "note": "[TO2]", "values": [
      {"measurement": "Kd", "value": 93.2, "unit": "µM"}
    ]}
  ]
}
